pEC50, pIC50: −log10 of the molar value. Counter-ions that a name gives are not always drawn.
Tests used:
[1] = biological target: T1, S1P1 (Homo sapiens, UniProt P21453); test: Method B: Receptor [35S] GTPγS SPA Binding Assay, membranes from S1P1 transfected CHO cells; format: biochemical; set-up: expressed in transfected cells; host or cells: S1P1/CHO cells; settings: for pEC50: Method B SPA, S1P1 transfected CHO cell membranes, NC = a satisfactory dose response curve was not obtained; for GTPγS S1P3/S1P1 (Method B): ratio of GTPγS S1P3 EC50 to GTPγS S1P1 EC50, Method B
T1 sequence (P21453 whole entry): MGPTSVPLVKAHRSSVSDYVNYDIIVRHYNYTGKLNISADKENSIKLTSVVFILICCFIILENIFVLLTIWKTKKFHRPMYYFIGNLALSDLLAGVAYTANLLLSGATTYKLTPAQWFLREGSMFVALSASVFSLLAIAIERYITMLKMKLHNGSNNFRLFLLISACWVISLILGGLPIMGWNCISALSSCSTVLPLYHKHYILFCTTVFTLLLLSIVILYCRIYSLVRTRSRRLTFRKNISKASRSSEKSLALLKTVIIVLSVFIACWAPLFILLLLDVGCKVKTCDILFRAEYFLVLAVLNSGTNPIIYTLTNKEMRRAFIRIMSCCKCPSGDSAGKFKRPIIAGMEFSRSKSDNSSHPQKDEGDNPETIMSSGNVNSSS
Experimental: (§1) Membranes prepared from S1P1 or S1P3 transfected CHO cells (2 μg protein) were incubated in 96-well white plates (CORNING® 3693) with test compounds diluted in DMSO, in 50 μl of reaction mixture containing 7.5 μl WGA-PVT beads (20 mg/ml), and 5 μM GDP, 20 mM HEPES pH 7.4, 100 mM NaCl, 1 mM EDTA, 5 mM MgCl2, 10 μg/ml saponin, 0.1% BSA, and 1 μM leupeptin. The assay was initiated with the addition of 25 μl of 0.2 nM [^35S]-GTPγS (1250 Ci/mmol; NEN) in assay buffer. After 90 min incubation at room temperature, spin the plate at 1000 rpm for 5 min. The bound radionuclides were measured at TOPCOUNT®, expressed as % response relative to S1P (1 μM) activation. Data was analyzed using the four parameter logistic equation in Excel. The four parameters in the equation, Y=A+((B−A)/(1+((EC50/X)^D))), are described as following: A is the Y value (agonist activity) at the bottom plateau; B is the Y value at the top plateau; EC50 is the X value (agonist concentration) when the response is halfway between bottom and top; D is Hill coefficient. Curves were not generated for compounds having Ymax values were below 50%.
(§2) Compounds of the present invention and Comparative Compound A were tested in the Receptor [^35S] GTPγS Binding Assays (Method A) and Receptor [35S] In some instances, the value is an average of multiple experiments where N is the number of experiments conducted that provided satisfactory dose response curves. When more than one batch of an example was tested, the value presented is from a batch which allowed a comparison of GTPγS S1P1 and GTPγS S1P3 in which the most number of experiments were performed. Preferably, the same batch was examined in Method A and Method B. Data was not averaged across different batches of an example compound.

[2] = biological target: T2, S1P3 (Homo sapiens, UniProt Q99500); test: Method A: Receptor [35S] GTPγS Binding Assay, membranes from EDG3-Ga15-bla HEK293T cells; format: biochemical; set-up: expressed in transfected cells; host or cells: EDG3-Ga15-bla HEK293T cells; settings: EDG3-Ga15-bla HEK293T cell membranes
Experimental: (§3) Compounds were loaded in a 384 Falcon v-bottom plate (0.5 μl/well in a 3-fold dilution). Membranes prepared from S1P1/CHO cells or EDG3-Ga15-bla HEK293T cells were added to the compound plate (40 μl/well, final protein […]) with MULTIDROP®. [^35S]GTP (1250 Ci/mmol, Perkin Elmer) was diluted in assay buffer: 20 mM HEPES, pH7.5, 10 mM MgCl2, 150 mM NaCl, 1 mM EGTA, 1 mM DTT, 10 μM GDP, 0.1% fatty acid free BSA, and 10 mg/ml Saponin to 0.4 nM. 40 μl of the [^35S] GTP solution was added to the compound plate with a final concentration of 0.2 nM. The reaction was kept at room temperature for 45 min. At the end of incubation, all the mixtures in the compound plate were transferred to a 384 well FB filter plates via GPCR robot system. The filter plate was washed with water 4 times by using the modified manifold Embla plate washer and dried at 60° C. for 45 min. 30 μl of MicroScint 20 scintillation fluid was added to each well for counting at Packard TOPCOUNT®. EC50 is defined as the agonist concentration that corresponds to 50% of the Ymax (maximal response) obtained for each individual compound tested.
as §2
Target sequence in this assay (Q99500 whole entry): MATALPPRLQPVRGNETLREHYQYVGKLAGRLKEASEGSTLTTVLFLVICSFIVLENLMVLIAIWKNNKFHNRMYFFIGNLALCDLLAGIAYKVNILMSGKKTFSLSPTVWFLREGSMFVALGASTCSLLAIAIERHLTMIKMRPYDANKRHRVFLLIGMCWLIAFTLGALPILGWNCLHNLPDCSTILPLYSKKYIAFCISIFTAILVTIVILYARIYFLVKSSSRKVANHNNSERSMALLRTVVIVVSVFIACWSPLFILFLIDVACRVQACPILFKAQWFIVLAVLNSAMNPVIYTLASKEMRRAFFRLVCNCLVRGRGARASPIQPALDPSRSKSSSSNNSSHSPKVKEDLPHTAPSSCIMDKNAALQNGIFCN

[3] = biological target: T2, S1P3; test: Method B: Receptor [35S] GTPγS SPA Binding Assay, membranes from S1P3 transfected CHO cells; format: biochemical; set-up: expressed in transfected cells; host or cells: CHO cells; settings: S1P3 transfected CHO cell membranes, NC = a satisfactory dose response curve was not obtained
Experimental: as §1, §2
Target sequence in this assay (Q99500 whole entry, species assumed): as the sequence (Q99500 whole entry) above

[4] = biological target: T1, S1P1; test: S1P1 Binding Assay (33P-S1P ligand competition, membranes from CHO cells); set-up: expressed in transfected cells; host or cells: CHO cells; settings: membranes of CHO cells expressing human S1P1; 0.03 nM 33P-S1P; 60 min room temperature
Experimental: Membranes were prepared from CHO cells expressing human S1P1. Cells were dissociated in buffer containing 20 mM HEPES, pH 7.5, 50 mM NaCl, 2 mM EDTA and Protease Inhibitor cocktail (Roche), and disrupted on ice using the Polytron homogenizer. The homogenate was centrifuged at 20,000 rpm (48,000 g) and the supernatant was discarded. The membrane pellets were resuspended in buffer containing 50 mM HEPES, pH 7.5, 100 mM NaCl, 1 mM MgCl2, 2 mM EDTA and stored in aliquots at −80° C. after protein concentration determination.
Membranes (2 μg/well) and 0.03 nM final concentration of ^33P-S1P ligand (1 mCi/ml, American Radiolabeled Chemicals) were added to the compound plates. Binding was performed for 60 min at room temperature, terminated by collecting the membranes onto GF/B filter plates, and radioactivity was measured by TOPCOUNT®. The competition data of the test compounds over a range of concentrations was plotted as percentage inhibition of radioligand specific binding. The IC50 is defined as the concentration of competing ligand needed to reduce specific binding by 50%.
Compounds of the present invention and Comparative Compound A were tested in the S1P1 binding assay described hereinabove and the results rounded to two digits, shown in Table A were obtained. In some instances, the value is an average of multiple experiments where N is the number of experiments conducted that provided satisfactory dose response curves. When more than one batch of an example was tested, the value presented is from the batch which allowed a comparison of GTPγS S1P1 and GTPγS S1P3 in Method A (Data shown in Table B). Data was not averaged across different batches of an example compound.

[5] = biological target: T1, S1P1; test: Method A: Receptor [35S] GTPγS Binding Assay, membranes from S1P1/CHO cells; format: biochemical; set-up: expressed in transfected cells; host or cells: S1P1/CHO cells; settings: for pEC50: Method A, S1P1/CHO cell membranes; for GTPγS S1P3/S1P1 (Method A): ratio of GTPγS S1P3 EC50 to GTPγS S1P1 EC50, Method A
Experimental: as §3, §2

## O=C(O)C1CN(Cc2ccc(-c3noc(-c4cc(-c5ccccc5)c(C(F)(F)F)s4)n3)cc2)C1 [Comp. A, 1-(4-(5-(4-Phenyl-5-(trifluoromethyl)thiophen-2-yl)-1,2,4-oxadiazol-3-yl)benzyl)azetidine-3-carboxylic acid, reference compound]
[1]
  pEC50: 9.60
  GTPγS S1P3/S1P1 (Method B): 78
[2]
  pEC50: 7.01
[3]
  pEC50: 7.70
[4]
  pIC50: 8.60
[5]
  pEC50: 7.08
  GTPγS S1P3/S1P1 (Method A): 1.2

## CC(C)(C)c1c(-c2nc(-c3ccc(CN4CC(C(=O)O)C4)cc3)no2)noc1-c1ccccc1 [Example 7, 1-(4-(5-(4-tert-Butyl-5-phenylisoxazol-3-yl)-1,2,4-oxadiazol-3-yl)benzyl)-azetidine-3-carboxylic acid, 2-2-2-trifluoroacetic acid salt]
[1]
  pEC50: 8.82
  GTPγS S1P3/S1P1 (Method B): 5,400
[2]
  pEC50: 5.43
[3]
  pEC50: 5.09
[4]
  pIC50: 9.24
[5]
  pEC50: 8.18
  GTPγS S1P3/S1P1 (Method A): 560

## CC(F)(F)c1c(-c2nc(-c3ccc(CN4CC(C(=O)O)C4)cc3)no2)noc1-c1ccccc1 [Example 9, 1-(4-(5-(4-(1,1-Difluoroethyl)-5-phenylisoxazol-3-yl)-1,2,4-oxadiazol-3-yl)benzyl)azetidine-3-carboxylic acid, 2,2,2-trifluoroacetic acid salt]
[1]
  pEC50: 9.85
  GTPγS S1P3/S1P1 (Method B): 6,500
[2]
  pEC50: 5.60
[3]
  pEC50: 6.04
[4]
  pIC50: 9.85
[5]
  pEC50: 8.51
  GTPγS S1P3/S1P1 (Method A): 810

## CCC(F)(F)c1c(-c2nc(-c3ccc(CN4CC(C(=O)O)C4)cc3)no2)noc1-c1ccccc1 [Example 10, 1-(4-(5-(4-(1,1-Difluoropropyl)-5-phenylisoxazol-3-yl)-1,2,4-oxadiazol-3-yl)benzyl)azetidine-3-carboxylic acid, trifluoroacetic acid salt]
[1]
  pEC50: 10.26
[2]
  pEC50: 6.72
[4]
  pIC50: 10.26
[5]
  pEC50: 9.08
  GTPγS S1P3/S1P1 (Method A): 230

## CCCc1c(-c2ccccc2)noc1-c1nc(-c2ccc(CN3CC(C(=O)O)C3)cc2)no1 [Example 11, 1-(4-(5-(3-Phenyl-4-propylisoxazol-5-yl)-1,2,4-oxadiazol-3-yl)benzyl)azetidine-3-carboxylic acid, 2,2,2-trifluoroacetic acid salt]
[1]
  pEC50: 10.77
  GTPγS S1P3/S1P1 (Method B): 2,900
[3]
  pEC50: 7.30
[4]
  pIC50: 9.89
[5]
  pEC50: 9.33

## O=C(O)C1CN(Cc2ccc(-c3noc(-c4onc(-c5ccccc5)c4C(F)F)n3)cc2)C1 [Example 12, 1-(4-(5-(4-(Difluoromethyl)-3-phenylisoxazol-5-yl)-1,2,4-oxadiazol-3-yl)benzyl)azetidine-3-carboxylic acid, 2,2,2-trifluoroacetic acid salt]
[1]
  pEC50: 9.82
  GTPγS S1P3/S1P1 (Method B): 11,000
[2]
  pEC50: 5.44
[3]
  pEC50: 5.80
[4]
  pIC50: 10.11

## CNC(=O)c1c(-c2ccccc2)noc1-c1nc(-c2ccc(CN3CC(C(=O)O)C3)cc2)no1 [Example 14, 1-(4-(5-(4-(Methylcarbamoyl)-3-phenylisoxazol-5-yl)-1,2,4-oxadiazol-3-yl)benzyl)azetidine-3-carboxylic acid, 2,2,2-trifluoroacetic acid salt]
[1]
  pEC50: 8.92
[2]
  pEC50: 5.28
[4]
  pIC50: 9.15
[5]
  pEC50: 6.82
  GTPγS S1P3/S1P1 (Method A): 35

## O=C(O)C1CN(Cc2ccc(-c3noc(-c4noc(-c5ccccc5)c4-c4ccccc4)n3)cc2)C1 [Example 17, 1-(4-(5-(4,5-diphenylisoxazol-3-yl)-1,2,4-oxadiazol-3-yl)benzyl)azetidine-3-carboxylic acid, 2,2,2-trifluoroacetic acid salt]
[1]
  pEC50: 9.92
  GTPγS S1P3/S1P1 (Method B): 112
[2]
  pEC50: 7.70
[3]
  pEC50: 7.87
[4]
  pIC50: 10.20
[5]
  pEC50: 9.14
  GTPγS S1P3/S1P1 (Method A): 27

## CCCc1c(-c2nc(-c3ccc(CN4CC(C(=O)O)C4)cc3)no2)noc1CC(C)C [Example 18, 1-(4-(5-(5-Isobutyl-4-propylisoxazol-3-yl)-1,2,4-oxadiazol-3-yl)benzyl)azetidine-3-carboxylic acid, TFA]
[1]
  pEC50: 10.82
  GTPγS S1P3/S1P1 (Method B): 1,400
[3]
  pEC50: 7.68
[4]
  pIC50: 9.85
[5]
  pEC50: 9.00

## CCCc1onc(-c2nc(-c3ccc(CN4CC(C(=O)O)C4)cc3)no2)c1CC(C)C [Example 19, 1-(4-(5-(4-Isobutyl-5-propylisoxazol-3-yl)-1,2,4-oxadiazol-3-yl)benzyl)azetidine-3-carboxylic acid, TFA]
[1]
  pEC50: 9.14
[2]
  pEC50: 6.09
[4]
  pIC50: 9.52
[5]
  pEC50: 8.52
  GTPγS S1P3/S1P1 (Method A): 270
